Assay results taken from US12391674B2, “Heterocyclic compounds for the treatment of epilepsy” (OTSUKA PHARMACEUTICAL CO., LTD., priority 2018, dated 2025).
Read-outs that look alike come from different tables or passages of the source.

Experiments:
ICR mice = assay: Rotarod test (motor coordination); type: in vivo, mouse; conditions: oral, rotarod 1 hour after administration
Description: This test is performed to evaluate the effect of the compound on the motor coordination. In this test example, the example compounds shown in Table 4 below were used as test compounds. Male ICR mice (Japan SLC, Inc., 5-6 weeks, 8 per group) were trained to remain on a fixed speed (15 rpm) rotating rod of rotarod apparatus (Muromachi Kikai Co., Ltd.) for 2 minutes. […] After 1 hour of oral administration, the mice were again placed on the rod accelerated from 4 rpm to 40 rpm over 5 minutes and the latency to fall off the rod was recorded for 200 seconds. The falling latency of the compound administration group was calculated as a relative value relative to the average value of the falling latency in the solvent administration group. Here, a coordination disorder of 25% or less was expressed as “A”, and a coordination disorder of more than 25% and 50% or less was expressed as “B”.

DBA/2 mice = assay: Audiogenic seizure model; type: in vivo; conditions: Mus musculus, read-out: Seizure suppression
Outline: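 Male and female DBA/2 mice (3 weeks old, 8/group) dosed orally at 30 mg/kg in 5% gum arabic; 1 h later exposed to 12.6 kHz, 100-110 dB tone for 1 min or until tonic seizure. Maximum seizure score (0–4) recorded; suppression rate graded A (≥90%), B (70–<90%), C (50–<70%).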

[1] = DBA/2 mice, oral, auditory stimulation 1 hour after administration
[2] = DBA/2 mice, oral, dose 30 mg/kg, auditory stimulation 1 hour after administration

Row | Structure (SMILES) | Motor dysfunction (ICR mice; dose 5 mg/kg) | inhibition in vivo at 5 mg/kg (DBA/2 mice; [1]) [%] | other results
1 | COc1ccc(-c2cnc(Oc3ccc(F)cc3)nc2)nn1 [Example 5] | A (a coordination disorder of 25% or less) | > 90 | –
2 | COc1ccc(-c2cnc(Oc3ccccc3)nc2)cn1 [Example 6, 5-(6-Methoxypyridin-3-Yl)-2-Phenoxypyrimidine] | A (a coordination disorder of 25% or less) | > 90 | –
3 | c1ccc(Oc2ncc(-c3cccnc3)cn2)cc1 [Example 7, 2-Phenoxy-5-(Pyridin-3-Yl)Pyrimidine] | A (a coordination disorder of 25% or less) | > 90 | –
4 | Cc1ccc(-c2cnc(Oc3ccccc3)nc2)cn1 [Example 8] | – | – | Motor dysfunction (ICR mice; dose 10 mg/kg): A (a coordination disorder of 25% or less); inhibition in vivo at 10 mg/kg (DBA/2 mice; [1]): > 90%
5 | c1ccc(Oc2ncc(-c3ccncn3)cn2)cc1 [Example 10] | – | – | Motor dysfunction (ICR mice; dose 30 mg/kg): A (a coordination disorder of 25% or less); inhibition in vivo at 30 mg/kg (DBA/2 mice; [2]): > 90%
6 | [O-][n+]1cccc(-c2cnc(Oc3ccccc3)nc2)c1 [Example 11, 3-(2-Phenoxypyrimidin-5-Yl)Pyridine 1-Oxide] | A (a coordination disorder of 25% or less) | > 90 | –
7 | Cc1cc(-c2cnc(Oc3ccccc3)nc2)ccn1 [Example 22] | A (a coordination disorder of 25% or less) | > 90 | –
8 | Nc1ccc(-c2cnc(Oc3cccc(F)c3)nc2)nn1 [Example 24, 6-(2-(3-Fluorophenoxy)Pyrimidin-5-Yl)Pyridazin-3-Amine] | A (a coordination disorder of 25% or less) | > 90 | –
9 | Nc1ccc(-c2cnc(Oc3ccccc3F)nc2)nn1 [Example 26] | A (a coordination disorder of 25% or less) | > 90 | –
10 | FC(F)(F)c1ccc(-c2cnc(Oc3ccccc3)nc2)cn1 [Example 27] | – | – | Motor dysfunction (ICR mice; dose 30 mg/kg): A (a coordination disorder of 25% or less); inhibition in vivo at 30 mg/kg (DBA/2 mice; [2]): > 90%
11 | Nc1ccc(-c2cnc(Oc3ccccc3)nc2)nn1 [Example 30, 6-(2-Phenoxypyrimidin-5-Yl)Pyridazin-3-Amine] | A (a coordination disorder of 25% or less) | > 90 | –
12 | c1ccc(Oc2ncc(-c3ccnnc3)cn2)cc1 [Example 31] | A (a coordination disorder of 25% or less) | > 90 | –
13 | Fc1ccc(-c2cnc(Oc3ccccc3)nc2)cn1 [Example 33] | – | > 90 | Motor dysfunction (ICR mice; dose 30 mg/kg): A (a coordination disorder of 25% or less)
14 | Cc1ncccc1-c1cnc(Oc2ccccc2)nc1 [Example 34] | – | – | Motor dysfunction (ICR mice; dose 30 mg/kg): A (a coordination disorder of 25% or less); inhibition in vivo at 30 mg/kg (DBA/2 mice; [2]): > 90%
15 | Nc1ccc(-c2cnc(Oc3ccccc3)nc2)cn1 [Example 36, 5-(2-Phenoxypyrimidin-5-Yl)Pyridin-2-Amine] | A (a coordination disorder of 25% or less) | > 90 | –
16 | FC(F)(F)c1ccc(-c2cnc(Oc3ccccc3)nc2)nn1 [Example 38, 3-(2-Phenoxypyrimidin-5-Yl)-6-(Trifluoromethyl)Pyridazine] | – | – | Motor dysfunction (ICR mice; dose 10 mg/kg): A (a coordination disorder of 25% or less); inhibition in vivo at 10 mg/kg (DBA/2 mice; [1]): > 90%
17 | Nc1ccc(-c2cnc(Oc3cccc(C(F)(F)F)c3)nc2)nn1 [Example 40] | – | – | Motor dysfunction (ICR mice; dose 3 mg/kg): A (a coordination disorder of 25% or less); inhibition in vivo at 3 mg/kg (DBA/2 mice; [1]): > 90%
18 | Nc1ccc(-c2cnc(Oc3cccc(OC(F)(F)F)c3)nc2)nn1 [Example 42] | A (a coordination disorder of 25% or less) | > 90 | –
19 | Nc1cc(-c2cnc(Oc3ccccc3)nc2)ccn1 [Example 55] | – | – | Motor dysfunction (ICR mice; dose 30 mg/kg): A (a coordination disorder of 25% or less); inhibition in vivo at 30 mg/kg (DBA/2 mice; po, 1 h): > 90%
20 | Nc1cncc(-c2cnc(Oc3ccccc3)nc2)c1 [Example 58] | – | – | Motor dysfunction (ICR mice; dose 30 mg/kg): A (a coordination disorder of 25% or less); inhibition in vivo at 30 mg/kg (DBA/2 mice; [2]): > 90%
21 | Cc1nc(N)ccc1-c1cnc(Oc2ccccc2)nc1 [Example 59] | – | – | Motor dysfunction (ICR mice; dose 3 mg/kg): A (a coordination disorder of 25% or less); inhibition in vivo at 3 mg/kg (DBA/2 mice; [1]): > 90%
22 | Cc1ccc(-c2cnc(Oc3ccccc3)nc2)c(N)n1 [Example 64] | – | – | Motor dysfunction (ICR mice; dose 3 mg/kg): A (a coordination disorder of 25% or less); inhibition in vivo at 3 mg/kg (DBA/2 mice; [1]): > 90%
23 | Nc1ccc(-c2cnc(Oc3ccccc3)nc2)c(N)n1 [Example 66] | – | – | Motor dysfunction (ICR mice; dose 30 mg/kg): A (a coordination disorder of 25% or less); inhibition in vivo at 30 mg/kg (DBA/2 mice; [2]): > 90%

Row | Structure (SMILES) | Motor dysfunction (ICR mice; dose 5 mg/kg) | inhibition in vivo at 5 mg/kg (DBA/2 mice; [1]) [%] | other results
24 | COc1ccc(-c2cnc(Oc3cccnc3)nc2)nn1 [Example 74] | A (a coordination disorder of 25% or less) | > 90 | –
25 | Nc1ccc(-c2cnc(Oc3cccnc3)nc2)cn1 [Example 90] | A (a coordination disorder of 25% or less) | 70 to 90 | –
26 | O=c1ccc(-c2cnc(Oc3ccccc3)nc2)n[nH]1 [Example 91, 6-(2-Phenoxypyrimidin-5-Yl)Pyridazin-3 (2H)-One] | A (a coordination disorder of 25% or less) | > 90 | –
27 | O=C1CCC(c2cnc(Oc3ccccc3)nc2)=NN1 [Example 92, 6-(2-Phenoxypyrimidin-5-Yl)-4,5-Dihydropyridazin-3 (2H)-One] | A (a coordination disorder of 25% or less) | > 90 | –
28 | O=c1ccc(-c2cnc(Oc3cccc(F)c3)nc2)n[nH]1 [Example 93] | – | – | Motor dysfunction (ICR mice; dose 30 mg/kg): A (a coordination disorder of 25% or less); inhibition in vivo at 30 mg/kg (DBA/2 mice; [2]): > 90%
29 | O=c1ccc(-c2cnc(Oc3ccccc3F)nc2)n[nH]1 [Example 95] | – | – | Motor dysfunction (ICR mice; dose 10 mg/kg): A (a coordination disorder of 25% or less); inhibition in vivo at 3 mg/kg (DBA/2 mice; [1]): > 90%
30 | O=c1ccc(-c2cnc(Oc3ccc(F)cc3)nc2)n[nH]1 [Example 97] | – | – | Motor dysfunction (ICR mice; dose 3 mg/kg): A (a coordination disorder of 25% or less); inhibition in vivo at 3 mg/kg (DBA/2 mice; [1]): > 90%
31 | O=C1CCC(c2cnc(Oc3ccc(F)cc3)nc2)=NN1 [Example 98] | – | – | Motor dysfunction (ICR mice; dose 3 mg/kg): A (a coordination disorder of 25% or less); inhibition in vivo at 3 mg/kg (DBA/2 mice; [1]): > 90%
32 | O=c1ccc(-c2cnc(Oc3cccc(C(F)(F)F)c3)nc2)n[nH]1 [Example 99] | – | – | Motor dysfunction (ICR mice; dose 10 mg/kg): A (a coordination disorder of 25% or less); inhibition in vivo at 10 mg/kg (DBA/2 mice; [1]): > 90%
33 | O=c1ccc(-c2cnc(Oc3c(F)cccc3F)nc2)n[nH]1 [Example 101] | – | – | Motor dysfunction (ICR mice; dose 3 mg/kg): A (a coordination disorder of 25% or less); inhibition in vivo at 3 mg/kg (DBA/2 mice; [1]): > 90%
34 | O=c1ccc(-c2cnc(Oc3cc(F)cc(F)c3)nc2)n[nH]1 [Example 102] | – | – | Motor dysfunction (ICR mice; dose 10 mg/kg): A (a coordination disorder of 25% or less); inhibition in vivo at 10 mg/kg (DBA/2 mice; [1]): > 90%
35 | O=c1ccc(-c2cnc(Oc3ccccc3)nc2)c[nH]1 [Example 103] | – | – | Motor dysfunction (ICR mice; dose 30 mg/kg): A (a coordination disorder of 25% or less); inhibition in vivo at 30 mg/kg (DBA/2 mice; [2]): > 90%
36 | O=c1[nH]cccc1-c1cnc(Oc2ccccc2)nc1 [Example 107] | – | – | Motor dysfunction (ICR mice; dose 30 mg/kg): A (a coordination disorder of 25% or less); inhibition in vivo at 30 mg/kg (DBA/2 mice; [2]): > 90%
37 | O=c1ccc(-c2cnc(Oc3cccnc3)nc2)n[nH]1 [Example 113] | – | – | Motor dysfunction (ICR mice; dose 10 mg/kg): A (a coordination disorder of 25% or less); inhibition in vivo at 10 mg/kg (DBA/2 mice; [1]): > 90%
38 | O=c1[nH]nccc1-c1cnc(Oc2ccccc2)nc1 [Example 114, 4-(2-Phenoxypyrimidin-5-Yl)Pyridazin-3 (2H)-One] | A (a coordination disorder of 25% or less) | > 90 | –
39 | c1ccc(Oc2ncc(-c3ccnc4ccccc34)cn2)cc1 [Example 118, 4-(2-Phenoxypyrimidin-5-Yl) Quinoline] | A (a coordination disorder of 25% or less) | 70 to 90 | –
40 | c1ccc(Oc2ncc(-c3ccc4nccn4c3)cn2)cc1 [Example 119, 6-(2-Phenoxypyrimidin-5-Yl) Imidazo[1,2-a]Pyridine] | A (a coordination disorder of 25% or less) | > 90 | –
41 | Fc1ccc(Oc2ncc(-c3ccc4nccn4c3)cn2)cc1 [Example 120] | B (a coordination disorder of more than 25% and 50% or less) | > 90 | –
42 | Fc1ccccc1Oc1ncc(-c2ccc3nccn3c2)cn1 [Example 121] | A (a coordination disorder of 25% or less) | > 90 | –
43 | Fc1cccc(Oc2ncc(-c3ccc4nccn4c3)cn2)c1 [Example 122] | A (a coordination disorder of 25% or less) | > 90 | –
44 | c1ccc(Oc2ncc(-c3ccc4nccn4n3)cn2)cc1 [Example 123, 6-(2-Phenoxypyrimidin-5-Yl) Imidazo[1,2-b]Pyridazine] | A (a coordination disorder of 25% or less) | > 90 | –
45 | c1ccc(Oc2ncc(-c3ccn4ccnc4c3)cn2)cc1 [Example 127] | B (a coordination disorder of more than 25% and 50% or less) | > 90 | –
46 | c1ccc(Oc2ncc(-c3ccc4nncn4c3)cn2)cc1 [Example 129] | A (a coordination disorder of 25% or less) | > 90 | –
